Read-outs that look alike come from different tables or passages of the source.
Legend:
Mab TrmD [1] = target: T1, Mab TrmD (Mycobacteroides abscessus, UniProt B1MDI3); assay: Differential scanning fluorimetry (DSF) thermal shift; type: binding; conditions: 5 mM ligand
Mab TrmD [2] = target: T1, Mab TrmD; conditions: ligand efficiency, previously reported, cited from earlier work
Mab TrmD [3] = target: T1, Mab TrmD; parameters: method as in PMID 32602532; conditions: cited from earlier work; for ΔTm: Table 3, 5 mM ligand and 10 μM Mab TrmD; for thermal shift (ΔTm): 5 mM ligand
Mab TrmD [4] = target: T1, Mab TrmD; assay: Isothermal titration calorimetry (ITC); type: binding; conditions: for GE (R^1): group efficiency of R^1; for LE: ligand efficiency; for GE: group efficiency of the added group; for GE (CH2R^1): group efficiency of CH2R^1
Mab TrmD [5] = target: T1, Mab TrmD; assay: Native mass spectrometry of ligand binding; conditions: 20 μM Mab TrmD, 100 μM ligand, 5% DMSO
Method: Native nanoelectrospray ionization mass spectrometry spectra were recorded on a Synapt HDMS mass spectrometer (Waters, Manchester, UK) modified for studying high masses. Mab TrmD was exchanged into 200 mM ammonium acetate (pH 7.0) solution using Micro Bio-Spin 6 chromatography columns (Bio-Rad, UK). Protein samples were equilibrated at room temperature in the absence or presence of the indicated concentrations of ligands for at least 15 min before analysis. Protein solution (2.5 μL) was injected into a gold-coated borosilicate emitter (Thermo Scientific, UK) for sampling. Typical conditions were capillary voltage 1.5 kV, cone voltage 50 V, trap collision voltage 20 V, transfer collision voltage 20 V, source temperature 20 °C, backing pressure 3–4 mbar, trap pressure 3–4 × 10^–2 mbar, IM (N2) pressure 5–6 × 10^–1 mbar and TOF pressure 7–8 × 10^–7 mbar. All mass spectra were calibrated externally with caesium iodide (10 mg/mL). Data acquisition and processing were performed using MassLynx 4.1 (Waters).

[6] = target: the molecule itself; assay: native MS; nanoelectrospray, Mab TrmD exchanged into 200 mM ammonium acetate pH 7.0, room temperature, protein alone (dimer also seen with 5% DMSO and with ligands)

With `CCNC(=O)c1cn[nH]c1` [Compound 2, N-Ethyl-1H-pyrazole-4-carboxamide] the ΔTm (Mab TrmD [1]) was < 0.5 °C.

In the case of `COc1ccc(-c2cc(N)[nH]n2)cc1` [Compound 16, 5-(4-methoxyphenyl)-1H-pyrazol-3-amine], the LE (Mab TrmD [2]; Table 3) is given as 0.37 kcal mol^–1 per heavy atom, the LE (Mab TrmD [2]) is given as 0.37 kcal mol^–1 per heavy atom and the ΔTm (Mab TrmD [3]) is given as “+3.0 °C”.

In the case of `Nc1cc(-c2ccccc2)n[nH]1` [Compound 17, 5-phenyl-1H-pyrazol-3-amine], the “thermal shift (ΔTm)” value (Mab TrmD [3]) is given as 1.4–1.5 °C and the ΔTm (Mab TrmD [3]) is given as “+1.5 °C”.

For `Cc1ccc(-c2cc(N)[nH]n2)cc1` [Compound 18, 5-(p-tolyl)-1H-pyrazol-3-amine], the “thermal shift (ΔTm)” value (Mab TrmD [3]) is listed as 1.4–1.5 °C and the ΔTm (Mab TrmD [3]) is listed as “+1.4 °C”.

For `COc1cccc(-c2cc(N)n[nH]2)c1` [Compound 19, 5-(3-Methoxyphenyl)-1H-pyrazol-3-amine], the “thermal shift (ΔTm)” value (Mab TrmD [1]) was “negative thermal shift”.

In the case of `OB(O)c1ccc2cc[nH]c2c1` [Compound 20, (1H-indol-6-yl)boronic acid], the LE (Mab TrmD [2]; Table 3) is listed as 0.41 kcal mol^–1 per heavy atom, the LE (Mab TrmD [2]) is listed as 0.41 kcal mol^–1 per heavy atom and the ΔTm (Mab TrmD [3]) is listed as “+4.0 °C”.

In the case of `O=C(O)c1ccc2cc[nH]c2c1` [Compound 21, 1H-indole-6-carboxylic acid], the “thermal shift (ΔTm)” value (Mab TrmD [3]) is given as “no ΔTm observed” and the ΔTm (Mab TrmD [3]) is given as “–0.6 °C”.

For `Nc1cc(-c2ccc3cc[nH]c3c2)[nH]n1` [Compound 23, 5-(1H-Indol-6-yl)-1H-pyrazol-3-amine], the LE (Mab TrmD [2]; Table 3) is listed as 0.36 kcal mol^–1 per heavy atom and the LE (Mab TrmD [2]) is listed as 0.36 kcal mol^–1 per heavy atom.

With `Nc1cc(-c2ccc3ccn(Cc4ccccc4)c3c2)[nH]n1` [Compound 24c, 5-(1-Benzyl-1H-indol-6-yl)-1H-pyrazol-3-amine] the “GE (R^1)” value (Mab TrmD [4]; Table 4) was 0.15 kcal mol^–1 per heavy atom, the LE (Mab TrmD [4]; Table 4) was 0.29 kcal mol^–1 per heavy atom and the GE (Mab TrmD [4]) was 0.15 kcal mol^–1 per heavy atom. The LE (Mab TrmD [4]) was 0.29 kcal mol^–1 per heavy atom and the “binding to Mab TrmD dimer observed by native MS” value (Mab TrmD [5]) was “entirely doubly bound”.

For `Nc1cc(-c2ccc3ccn(Cc4ccccn4)c3c2)[nH]n1` [Compound 24f, 5-(1-(Pyridin-2-ylmethyl)-1H-indol-6-yl)-1H-pyrazol-3-amine], the “GE (R^1)” value (Mab TrmD [4]; Table 4) is given as 0.18 kcal mol^–1 per heavy atom, the LE (Mab TrmD [2]; Table 4) is given as 0.30 kcal mol^–1 per heavy atom and the LE (Mab TrmD [2]) is given as 0.30 kcal mol^–1 per heavy atom.

For `N#Cc1c(N)n[nH]c1-c1ccc2ccn(Cc3ccccn3)c2c1` [Compound 26f, 3-Amino-5-(1-(pyridin-2-ylmethyl)-1H-indol-6-yl)-1H-pyrazole-4-carbonitrile], the “GE (R^1)” value (Mab TrmD [4]; Table 4) is given as 0.20 kcal mol^–1 per heavy atom, the GE (Mab TrmD [4]) is given as 0.95 kcal mol^–1 per heavy atom and the LE (Mab TrmD [2]; Table 4) is given as 0.36 kcal mol^–1 per heavy atom. For the same molecule, the LE (Mab TrmD [2]) was 0.36 kcal mol^–1 per heavy atom.

For `N#Cc1c(N)n[nH]c1-c1ccc2ccn(Cc3ccc(CN4CCCC4)cn3)c2c1` [Compound 28, 3-Amino-5-(1-((5-(pyrrolidin-1-ylmethyl)pyridin-2-yl)methyl)-1H-indol-6-yl)-1H-pyrazole-4-carbonitrile], the “GE (CH2R^1)” value (Mab TrmD [4]; Table 6) is given as 0.17 kcal mol^–1 per heavy atom, the LE (Mab TrmD [2]; Table 6) is given as 0.32 kcal mol^–1 per heavy atom and the LE (Mab TrmD [2]) is given as 0.32 kcal mol^–1 per heavy atom.

For `N#Cc1c(N)n[nH]c1-c1ccc2ccn(Cc3ccc(CN4CCCC4)cc3)c2c1` [Compound 29a, 3-Amino-5-(1-(4-(pyrrolidin-1-ylmethyl)benzyl)-1H-indol-6-yl)-1H-pyrazole-4-carbonitrile], the LE (Mab TrmD [2]; Table 6) is given as 0.34 kcal mol^–1 per heavy atom, the LE (Mab TrmD [2]) is given as 0.34 kcal mol^–1 per heavy atom and the “binding to Mab TrmD dimer observed by native MS” value (Mab TrmD [5]) is given as “low gas-phase stabilities”.

In the case of `CN1CCN(Cc2ccc(Cn3ccc4ccc(-c5[nH]nc(N)c5C#N)cc43)cc2)CC1` [Compound 29d, 3-Amino-5-(1-(4-((4-methylpiperazin-1-yl)methyl)benzyl)-1H-indol-6-yl)-1H-pyrazole-4-carbonitrile], the LE (Mab TrmD [2]; Table 6) is listed as 0.30 kcal mol^–1 per heavy atom and the LE (Mab TrmD [2]) is listed as 0.30 kcal mol^–1 per heavy atom.

For `Cc1c(N)n[nH]c1-c1ccc2ccn(Cc3ccc(CN4CCCC4)cc3)c2c1` [Compound 30a, 4-Methyl-5-(1-(4-(pyrrolidin-1-ylmethyl)benzyl)-1H-indol-6-yl)-1H-pyrazol-3-amine], the Kd (Mab TrmD [4]; Table 6) was 2000 ± 310 nM and the LE (Mab TrmD [4]; Table 6) was 0.27 kcal mol^–1 per heavy atom.

For `Nc1cc(-c2ccc3ccn(Cc4ccc(CN5CCCC5)cc4)c3c2)[nH]n1` [Compound 31a, 5-(1-(4-(Pyrrolidin-1-ylmethyl)benzyl)-1H-indol-6-yl)-1H-pyrazol-3-amine], the “GE (CH2R^1)” value (Mab TrmD [4]; Table 6) is given as 0.36 kcal mol^–1 per heavy atom and the LE (Mab TrmD [2]; Table 6) is given as 0.31 kcal mol^–1 per heavy atom.

For `Nc1cc(-c2ccc3ccn(Cc4ccc(CN5CCCCC5)cc4)c3c2)[nH]n1` [Compound 31b, 5-(1-(4-(Piperidin-1-ylmethyl)benzyl)-1H-indol-6-yl)-1H-pyrazol-3-amine], the Kd (Mab TrmD [4]; Table 6) was 710 ± 90 nM, the “GE (CH2R^1)” value (Mab TrmD [4]; Table 6) was 0.28 kcal mol^–1 per heavy atom and the LE (Mab TrmD [4]; Table 6) was 0.29 kcal mol^–1 per heavy atom.

B1: Mycobacterium abscessus tRNA (m1G37) methyltransferase (TrmD) (enzyme, UniProt B1MDI3 1-242, looked up)
chain: MKIDVVTIFPEYLQPVRQSLPGKAIDAGLVDVAVHDLRRWTHDVHKSVDDSPYGGGPGMVMKPTVWGDALDEICTSETLLVVPTPAGYPFTQETAWQWSTEDHLVIACGRYEGIDQRVADDAATRMRVREVSIGDYVLNGGEAAALVIIEAVLRLVPGVLGNALSAQEDSHSEGMASLLEGPSYTRPPSWRGMDVPPVLLSGDHAKIAAWRAEQSRQRTIERRPDLLGFDSPTGEHGGDGLS
For B1, the “stoichiometry N” value [6] was 2.

From paper PMC6691401 (Journal of Medicinal Chemistry, 2019)
